Results taken from patent US8106055B2, “Substituted amide compounds” (Gruenenthal GmbH, priority 2007, dated 2012).

Legend:
human μ opiate receptor = biological target: T1, human μ opiate receptor (Homo sapiens, UniProt P35372); assay: Affinity for the human μ opiate receptor ([3H]-naloxone displacement, CHO-K1 receptor membrane preparation, SPA); assay type: binding; conditions: test concentration of 1 μM
T1 construct: purchased PerkinElmer Life Sciences, Zaventem, Belgium RB-HOM; host or cells: CHO-K1 cells (membrane preparation)
Method in brief: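 Membranes from CHO-K1 cells expressing the human μ opiate receptor (15-40 μg protein per well) were incubated with test compound, 1 nmol/l [3H]-naloxone and WGA-SPA beads in 50 mmol/l Tris-HCl with 0.06% BSA for 90 minutes at room temperature. Values are % inhibition of specific binding at 1 μmol/l.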

[1] = biological target: T2, bradykinin 1 receptor (B1R) of the rat (Rattus norvegicus, UniProt P97583); assay: Functional investigation on the rat bradykinin 1 receptor (B1R), Ca2+ FLIPR assay in CHO K1 rB1R cells; assay type: cell-based; conditions: B1R antagonism rat; test substance 10 μM; Ca2+ FLIPR, CHO K1 rB1R cells
T2 construct: expressed in transfected cells; host or cells: CHO K1 cells
T2 sequence (P97583 1-337): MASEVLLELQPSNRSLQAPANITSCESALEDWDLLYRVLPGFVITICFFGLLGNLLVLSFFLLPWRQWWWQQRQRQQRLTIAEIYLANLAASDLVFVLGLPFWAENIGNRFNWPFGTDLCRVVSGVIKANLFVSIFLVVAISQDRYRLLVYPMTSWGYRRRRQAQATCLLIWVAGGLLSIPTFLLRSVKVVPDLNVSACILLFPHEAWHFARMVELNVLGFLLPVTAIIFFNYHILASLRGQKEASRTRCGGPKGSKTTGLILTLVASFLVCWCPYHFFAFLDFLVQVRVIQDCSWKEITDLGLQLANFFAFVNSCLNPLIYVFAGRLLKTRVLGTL
Method in brief: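 Cells were dye-loaded with Fluo-4 plus probenecid, then test substances added and Ca2+ influx compared with agonist control for % activation. After 10-20 min, EC80 agonist (Lys-Des-Arg9-bradykinin human; Des-Arg9-bradykinin rat) was applied; suppression gave % inhibition and IC50 values.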

T1 sequence (P35372 whole entry): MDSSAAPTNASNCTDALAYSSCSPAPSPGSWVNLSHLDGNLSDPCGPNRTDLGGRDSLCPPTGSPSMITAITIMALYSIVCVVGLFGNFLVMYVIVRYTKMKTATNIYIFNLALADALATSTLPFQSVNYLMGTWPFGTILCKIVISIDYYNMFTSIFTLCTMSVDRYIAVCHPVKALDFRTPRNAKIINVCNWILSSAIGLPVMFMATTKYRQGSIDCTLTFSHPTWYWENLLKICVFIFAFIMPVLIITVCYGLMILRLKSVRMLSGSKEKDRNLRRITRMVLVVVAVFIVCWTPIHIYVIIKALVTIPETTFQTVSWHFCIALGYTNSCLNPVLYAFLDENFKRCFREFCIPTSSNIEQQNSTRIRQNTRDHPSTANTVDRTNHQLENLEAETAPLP

Compound	μ (binding on the μ opioid receptor, % inhibition) (human μ opiate receptor) [%]	B1R Ant. r [10 μM] % Inhibition [1] [%]
CN(C)C(c1cccc(F)c1)C1CCC(CCNC(=O)COC2CCN(S(=O)(=O)c3ccccc3)CC2)CC1 (centres unmarked) [Example 444]	56	−5
COc1cc(C)c(S(=O)(=O)N2CCN(CCOCC(=O)NCCC3CCC(C(c4ccc(F)cc4)N(C)C)CC3)CC2)c(C)c1C (centres unmarked) [Example 387]	53	−2
COc1ccc(S(=O)(=O)N2CCC(OCC(=O)NCCC3CCC(C(c4ccc(F)cc4)N(C)C)CC3)C2)cc1OC (centres unmarked) [Example 430]	56	21
COc1ccc(S(=O)(=O)N2CCCCC2CCOCC(=O)NCCC2CCC(C(c3ccc(Cl)cc3)N(C)C)CC2)cc1 (centres unmarked) [Example 383]	59	33
CN(C)C(c1ccc(F)cc1)C1CCC(CCNC(=O)COCCN(C)S(=O)(=O)c2ccc(OC(F)(F)F)cc2)CC1 (centres unmarked) [Example 446]	51	33
CN(C)C(c1ccc(F)cc1)C1CCC(CNC(=O)COCCN(C)S(=O)(=O)c2ccc(OC(F)(F)F)cc2)CC1 (centres unmarked) [Example 439]	50	16
Cc1cc(C)c(S(=O)(=O)N2CCC(OCC(=O)NCC3CCC(C(c4ccc(Cl)cc4)N(C)C)CC3)C2)c(C)c1 (centres unmarked) [Example 393]	55	39
CN(C)C(c1ccc(F)cc1)C1CCC(CCNC(=O)COCCN(C)S(=O)(=O)c2cccc(C(F)(F)F)c2)CC1 (centres unmarked) [Example 368]	61	17
Cc1cc(C)c(S(=O)(=O)N(C)CCOCC(=O)NCCC2CCC(C(c3ccc(Cl)cc3)N(C)C)CC2)c(C)c1 (centres unmarked) [Example 416]	53	30
CN(C)C(c1ccc(Cl)cc1)C1CCC(CNC(=O)COCCN(C)S(=O)(=O)c2ccc(OC(F)(F)F)cc2)CC1 (centres unmarked) [Example 411]	60	3
CN(C)C(CCc1ccccc1)C1CCC(CNC(=O)COCC2CCCN2S(=O)(=O)c2ccc(Cl)c(Cl)c2)CC1 (centres unmarked) [Example 415]	55	39
COc1cc(C)c(S(=O)(=O)N(CCOCC(=O)NCC2CCC(C(c3cccc(F)c3)N(C)C)CC2)Cc2ccccc2)c(C)c1C (centres unmarked) [Example 414]	64	10
CN(C)C(c1ccc(F)cc1)C1CCC(NC(=O)COCCN(C)S(=O)(=O)c2c(Cl)cccc2Cl)CC1 (centres unmarked) [Example 363]	59	29
Cc1ccc(S(=O)(=O)N2CCC(OCC(=O)NC3CCC(C(c4ccc(F)cc4)N(C)C)CC3)C2)cc1 (centres unmarked) [Example 371]	57	5
CN(C)C(c1ccc(Cl)cc1)C1CCC(CCNC(=O)COCCN(C)S(=O)(=O)c2c(Cl)cc(Cl)cc2Cl)CC1 (centres unmarked) [Example 442]	54	11
COc1cc(C)c(S(=O)(=O)N(CCOCC(=O)NC2CCC(C(c3cccc(F)c3)N(C)C)CC2)Cc2ccccc2)c(C)c1 (centres unmarked) [Example 372]	59	22
CN(C)C(c1ccc(F)cc1)C1CCC(CNC(=O)COC2CCN(S(=O)(=O)c3ccc(Cl)cc3Cl)C2)CC1 (centres unmarked) [Example 391]	56	32
CN(C)C(c1ccc(Cl)cc1)C1CCC(CCNC(=O)COCC2CCCN(S(=O)(=O)c3ccccc3)C2)CC1 (centres unmarked) [Example 425]	48	30
COc1cc(C)c(S(=O)(=O)N2CCC(CCOCC(=O)NCCC3CCC(C(c4cccc(F)c4)N(C)C)CC3)CC2)c(C)c1C (centres unmarked) [Example 397]	67	−11

Compound	μ (binding on the μ opioid receptor, % inhibition) (human μ opiate receptor) [%]	B1R Ant. r [10 μM] % Inhibition [1] [%]
CN(C)C(c1cccc(F)c1)C1CCC(NC(=O)COCCN2CCN(S(=O)(=O)c3ccccc3)CC2)CC1 (centres unmarked) [Example 364]	58	−9
CN(C)C(c1ccc(Cl)cc1)C1CCC(CCNC(=O)COC2CCCCC2N(C)S(=O)(=O)c2ccc(Cl)c(Cl)c2)CC1 (centres unmarked) [Example 410]	50	6
COc1ccc(S(=O)(=O)N(C)CCOCC(=O)NC2CCC(C(c3cccc(F)c3)N(C)C)CC2)cc1OC (centres unmarked) [Example 401]	49	1
CN(C)C(c1ccc(F)cc1)C1CCC(NC(=O)COCCN(C)S(=O)(=O)c2cccc(C(F)(F)F)c2)CC1 (centres unmarked) [Example 438]	51	−10
Cc1ccc(S(=O)(=O)N(C)CCOCC(=O)NC2CCC(C(c3ccc(F)cc3)N(C)C)CC2)cc1 (centres unmarked) [Example 448]	41	12
CN(C)C(c1ccc(F)cc1)C1CCC(CCNC(=O)COCCN(C)S(=O)(=O)c2c(Cl)cc(Cl)cc2Cl)CC1 (centres unmarked) [Example 386]	63	20
CCN(CCOCC(=O)NC1CCC(C(c2ccc(F)cc2)N(C)C)CC1)S(=O)(=O)c1c(C)cc(OC)c(C)c1C (centres unmarked) [Example 396]	60	68
CN(C)C(c1ccc(Cl)cc1)C1CCC(CCNC(=O)COC2CCN(S(=O)(=O)c3ccccc3)C2)CC1 (centres unmarked) [Example 375]	53	6
CN(C)C(c1ccc(F)cc1)C1CCC(NC(=O)COC2CCN(S(=O)(=O)c3ccc(Cl)cc3)C2)CC1 (centres unmarked) [Example 370]	59	3
COc1cc(C)c(S(=O)(=O)N2CCCC(OCC(=O)NCC3CCC(C(c4ccc(Cl)cc4)N(C)C)CC3)C2)c(C)c1C (centres unmarked) [Example 449]	46	−7
CN(C)C(c1cccc(F)c1)C1CCC(CCNC(=O)COC2CCN(S(=O)(=O)c3ccc(F)cc3)C2)CC1 (centres unmarked) [Example 407]	54	10
COc1cc(C)c(S(=O)(=O)N2CCCC(OCC(=O)NCC3CCC(C(c4ccc(F)cc4)N(C)C)CC3)C2)c(C)c1C (centres unmarked) [Example 418]	51	6
COc1cc(C)c(S(=O)(=O)N(C)CCOCC(=O)NCCC2CCC(C(c3ccc(Cl)cc3)N(C)C)CC2)c(C)c1 (centres unmarked) [Example 378]	58	101
COc1cc(C)c(S(=O)(=O)N2CCCC(OCC(=O)NC3CCC(C(c4ccc(F)cc4)N(C)C)CC3)C2)c(C)c1C (centres unmarked) [Example 435]	48	14
CN(C)C(c1ccc(Cl)cc1)C1CCC(CNC(=O)COC2CCN(S(=O)(=O)c3ccc(Cl)cc3)C2)CC1 (centres unmarked) [Example 384]	55	25
COc1cc(C)c(S(=O)(=O)N2CCC(OCC(=O)NC3CCC(C(c4ccc(F)cc4)N(C)C)CC3)C2)c(C)c1C (centres unmarked) [Example 365]	49	2
COc1ccc(S(=O)(=O)N2CCCCC2CCOCC(=O)NCCC2CCC(C(c3ccc(F)cc3)N(C)C)CC2)cc1 (centres unmarked) [Example 398]	59	56
CCN(CCOCC(=O)NCCC1CCC(C(c2ccc(Cl)cc2)N(C)C)CC1)S(=O)(=O)c1c(C)cc(OC)c(C)c1C (centres unmarked) [Example 434]	46	58
